Measurements taken from patent US9801889B2, “Bicyclic heterocycles as FGFR4 inhibitors” (Incyte Corporation, priority 2015, dated 2017).

Legend:
FGFR1 = FGFR1 (Homo sapiens (Human), UniProt P11362); assay: FGFR Enzymatic Assay (FRET peptide phosphorylation), FGFR1; details: IC50 ratio showing FGFR4 selectivity; pre-incubated for 4 hours
Description: (§1) The enzymes were purchased from Millipore or Invitrogen.
(§2) GraphPad prism3 was used to analyze the data. The IC50 values were derived by fitting the data to the equation for a sigmoidal dose-response with a variable slope. Y=Bottom+(Top-Bottom)/(1+10^((LogIC50-X)*HillSlope)) where X is the logarithm of concentration and Y is the response.

FGFR3 = FGFR3 (Homo sapiens (Human), UniProt P22607); assay: FGFR Enzymatic Assay (FRET peptide phosphorylation), FGFR3; details: IC50 ratio showing FGFR4 selectivity; pre-incubated for 4 hours
Description: as §1, §2

FGFR4 = FGFR4 (Homo sapiens (Human), UniProt P22455); assay: FGFR Enzymatic Assay (FRET peptide phosphorylation), FGFR4
Description: as §1, §2

FGFR2 = FGFR2 (Homo sapiens (Human), UniProt P21802); assay: FGFR Enzymatic Assay (FRET peptide phosphorylation), FGFR2; details: IC50 ratio showing FGFR4 selectivity; pre-incubated for 4 hours
Sequence of FGFR2 (P21802 22-821): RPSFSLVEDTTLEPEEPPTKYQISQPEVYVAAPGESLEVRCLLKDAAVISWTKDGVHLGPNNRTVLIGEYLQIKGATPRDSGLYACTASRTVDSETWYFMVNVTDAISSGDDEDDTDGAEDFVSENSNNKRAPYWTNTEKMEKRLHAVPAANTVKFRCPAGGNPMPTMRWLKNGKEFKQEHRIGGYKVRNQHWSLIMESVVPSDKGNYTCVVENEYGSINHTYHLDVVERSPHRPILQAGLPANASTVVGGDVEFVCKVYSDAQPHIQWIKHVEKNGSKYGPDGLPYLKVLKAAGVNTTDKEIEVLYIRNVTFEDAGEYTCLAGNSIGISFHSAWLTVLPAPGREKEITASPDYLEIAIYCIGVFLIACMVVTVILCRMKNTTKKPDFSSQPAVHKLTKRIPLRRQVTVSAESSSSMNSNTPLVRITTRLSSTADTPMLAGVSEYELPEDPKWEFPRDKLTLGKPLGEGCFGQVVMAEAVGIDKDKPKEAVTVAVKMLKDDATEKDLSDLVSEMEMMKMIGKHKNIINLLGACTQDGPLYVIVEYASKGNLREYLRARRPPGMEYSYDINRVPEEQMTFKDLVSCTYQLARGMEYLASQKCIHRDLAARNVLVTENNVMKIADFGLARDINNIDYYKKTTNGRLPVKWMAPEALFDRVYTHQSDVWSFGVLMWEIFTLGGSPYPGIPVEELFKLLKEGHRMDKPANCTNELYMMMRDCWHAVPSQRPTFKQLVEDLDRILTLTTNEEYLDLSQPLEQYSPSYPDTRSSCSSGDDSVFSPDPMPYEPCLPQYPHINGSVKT
Description: as §1, §2

Sequence of FGFR1 (P11362 22-822): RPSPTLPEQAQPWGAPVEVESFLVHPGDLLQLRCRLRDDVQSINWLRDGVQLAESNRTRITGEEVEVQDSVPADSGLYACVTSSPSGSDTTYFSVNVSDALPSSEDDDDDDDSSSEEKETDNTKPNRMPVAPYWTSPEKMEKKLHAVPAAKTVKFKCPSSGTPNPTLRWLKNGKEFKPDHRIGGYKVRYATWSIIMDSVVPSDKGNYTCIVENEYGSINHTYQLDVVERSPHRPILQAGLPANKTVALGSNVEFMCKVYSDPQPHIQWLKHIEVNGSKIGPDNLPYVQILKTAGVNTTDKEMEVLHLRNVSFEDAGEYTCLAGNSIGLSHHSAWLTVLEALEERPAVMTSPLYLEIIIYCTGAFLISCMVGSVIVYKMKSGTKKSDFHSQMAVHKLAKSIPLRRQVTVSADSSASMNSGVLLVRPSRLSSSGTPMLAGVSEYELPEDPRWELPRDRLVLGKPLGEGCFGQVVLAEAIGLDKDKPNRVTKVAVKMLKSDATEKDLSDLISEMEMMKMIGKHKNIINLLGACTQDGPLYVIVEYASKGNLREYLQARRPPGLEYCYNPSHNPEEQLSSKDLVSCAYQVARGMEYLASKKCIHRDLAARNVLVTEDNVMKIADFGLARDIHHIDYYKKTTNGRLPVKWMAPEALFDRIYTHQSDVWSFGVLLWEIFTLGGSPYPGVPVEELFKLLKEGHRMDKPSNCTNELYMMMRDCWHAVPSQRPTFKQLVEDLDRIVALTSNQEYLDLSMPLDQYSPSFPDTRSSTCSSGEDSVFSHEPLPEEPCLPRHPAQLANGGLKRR
Sequence of FGFR3 (P22607 23-806): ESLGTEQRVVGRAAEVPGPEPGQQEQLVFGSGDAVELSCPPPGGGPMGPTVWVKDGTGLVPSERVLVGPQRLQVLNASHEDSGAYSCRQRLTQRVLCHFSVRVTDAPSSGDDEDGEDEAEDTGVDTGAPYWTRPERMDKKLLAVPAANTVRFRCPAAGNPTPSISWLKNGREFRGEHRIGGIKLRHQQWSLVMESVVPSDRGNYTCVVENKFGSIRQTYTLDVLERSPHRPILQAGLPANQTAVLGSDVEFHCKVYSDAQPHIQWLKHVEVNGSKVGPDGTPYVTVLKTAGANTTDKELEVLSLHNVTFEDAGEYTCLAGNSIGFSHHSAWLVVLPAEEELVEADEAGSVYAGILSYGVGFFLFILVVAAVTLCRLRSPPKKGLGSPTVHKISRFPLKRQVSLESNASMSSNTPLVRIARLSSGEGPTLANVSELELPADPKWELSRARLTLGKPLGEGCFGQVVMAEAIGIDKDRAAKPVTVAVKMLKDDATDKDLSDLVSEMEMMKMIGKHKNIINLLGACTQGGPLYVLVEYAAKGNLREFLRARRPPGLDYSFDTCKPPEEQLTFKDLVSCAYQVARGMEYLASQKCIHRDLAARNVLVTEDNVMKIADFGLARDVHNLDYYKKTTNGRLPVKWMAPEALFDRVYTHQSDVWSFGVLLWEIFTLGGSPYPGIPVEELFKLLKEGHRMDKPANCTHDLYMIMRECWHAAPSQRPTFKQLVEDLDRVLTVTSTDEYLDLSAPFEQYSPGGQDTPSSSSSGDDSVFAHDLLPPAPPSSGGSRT
Sequence of FGFR4 (P22455 22-802): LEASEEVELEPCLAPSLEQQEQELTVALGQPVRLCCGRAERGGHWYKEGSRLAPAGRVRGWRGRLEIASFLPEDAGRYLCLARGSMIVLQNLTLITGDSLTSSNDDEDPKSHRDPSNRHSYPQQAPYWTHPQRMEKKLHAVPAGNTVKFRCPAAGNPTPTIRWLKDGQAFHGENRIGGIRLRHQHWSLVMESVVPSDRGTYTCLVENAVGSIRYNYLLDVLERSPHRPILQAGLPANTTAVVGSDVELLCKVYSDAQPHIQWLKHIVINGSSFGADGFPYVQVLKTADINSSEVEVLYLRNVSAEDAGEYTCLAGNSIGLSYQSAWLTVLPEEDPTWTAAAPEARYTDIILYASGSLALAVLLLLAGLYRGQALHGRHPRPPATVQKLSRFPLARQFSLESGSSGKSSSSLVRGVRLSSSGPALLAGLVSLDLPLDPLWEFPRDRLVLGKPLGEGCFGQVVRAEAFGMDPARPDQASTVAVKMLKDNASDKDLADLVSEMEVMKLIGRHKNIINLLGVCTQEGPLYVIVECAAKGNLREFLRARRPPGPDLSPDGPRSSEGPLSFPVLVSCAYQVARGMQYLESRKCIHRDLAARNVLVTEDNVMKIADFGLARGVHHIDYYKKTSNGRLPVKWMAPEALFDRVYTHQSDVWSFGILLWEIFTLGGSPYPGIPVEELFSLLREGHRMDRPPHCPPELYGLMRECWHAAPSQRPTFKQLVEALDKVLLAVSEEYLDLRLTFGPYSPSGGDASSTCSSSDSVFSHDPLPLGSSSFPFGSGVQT

Question: With C=CC(=O)Nc1cnn(CC(=O)NC)c1-c1cc2c(cn1)CN(c1c(F)c(OC)cc(OC)c1F)C(=O)C21CC1 [Example 20, N-(5-(2′-(2,6-difluoro-3,5-dimethoxyphenyl)-3′-oxo-2′,3′-dihydro-1′H-spiro[cyclopropane-1,4′-[2,7]naphthyridine]-6′-yl)-1-(2-(methylamino)-2-oxoethyl)-1H-pyrazol-4-yl)acrylamide] as the compound, how does the FGFR1/FGFR4 (FGFR1) read?
Answer: Its FGFR1/FGFR4 is >50.

Question: What about the FGFR3/FGFR4 (FGFR3) of the same compound?
Answer: Its FGFR3/FGFR4 is >100.

Question: And the IC50 (FGFR4)?
Answer: The IC50 was 10 to 30 nM.

Question: And the FGFR2/FGFR4 (FGFR2)?
Answer: Its FGFR2/FGFR4 is >100.

Question: C=CC(=O)Nc1cnn(Cc2ccnn2C)c1-c1cc2c(cn1)CN(c1c(F)c(OC)cc(OC)c1F)C(=O)C21CC1 [Example 26, N-(5-(2′-(2,6-difluoro-3,5-dimethoxyphenyl)-3′-oxo-2′,3′-dihydro-1′H-spiro[cyclopropane-1,4′-[2,7]naphthyridine]-6′-yl)-1-((1-methyl-1H-pyrazol-5-yl)methyl)-1H-pyrazol-4-yl)acrylamide] was tested. Which FGFR1/FGFR4 (FGFR1) did it give?
Answer: The FGFR1/FGFR4 was >100.

Question: What about the FGFR3/FGFR4 (FGFR3) of the same compound?
Answer: Its FGFR3/FGFR4 is >100.

Question: And the FGFR2/FGFR4 (FGFR2)?
Answer: The FGFR2/FGFR4 was >50.

Question: C=CC(=O)Nc1cnn(Cc2cnn(C)c2)c1-c1cc2c(cn1)CN(c1c(F)c(OC)cc(OC)c1F)C(=O)C21CC1 [Example 27, N-(5-(2′-(2,6-difluoro-3,5-dimethoxyphenyl)-3′-oxo-2′,3′-dihydro-1′H-spiro[cyclopropane-1,4′-[2,7]naphthyridine]-6′-yl)-1-((1-methyl-1H-pyrazol-4-yl)methyl)-1H-pyrazol-4-yl)acrylamide] was tested. Which FGFR1/FGFR4 (FGFR1) did it give?
Answer: Its FGFR1/FGFR4 is >100.

Question: What about the FGFR3/FGFR4 (FGFR3) of the same compound?
Answer: The FGFR3/FGFR4 was >100.

Question: What about the FGFR2/FGFR4 (FGFR2) of the same compound?
Answer: The FGFR2/FGFR4 was >100.

Question: Which results are given for C=CC(=O)Nc1cnn(C[C@@H]2CCOC2)c1-c1cc2c(cn1)CN(c1c(F)c(OC)cc(OC)c1F)C(=O)C21CC1 [Example 28, (S)-N-(5-(2′-(2,6-difluoro-3,5-dimethoxyphenyl)-3′-oxo-2′,3′-dihydro-1′H-spiro[cyclopropane-1,4′-[2,7]naphthyridine]-6′-yl)-1-((tetrahydrofuran-3-yl)methyl)-1H-pyrazol-4-yl)acrylamide]?
Answer: FGFR1/FGFR4 (FGFR1): >100; FGFR3/FGFR4 (FGFR3): >100; FGFR2/FGFR4 (FGFR2): >100

Question: With C=CC(=O)Nc1cnn(C[C@H]2CCCO2)c1-c1cc2c(cn1)CN(c1c(F)c(OC)cc(OC)c1F)C(=O)C21CC1 [Example 30] as the compound, how does the FGFR1/FGFR4 (FGFR1) read?
Answer: The FGFR1/FGFR4 was >100.

Question: And the FGFR3/FGFR4 (FGFR3)?
Answer: Its FGFR3/FGFR4 is >100.

Question: And the FGFR2/FGFR4 (FGFR2)?
Answer: Its FGFR2/FGFR4 is >100.

Question: Which FGFR1/FGFR4 (FGFR1) does the source give for C=CC(=O)Nc1cnn(C[C@@H]2CCCO2)c1-c1cc2c(cn1)CN(c1c(F)c(OC)cc(OC)c1F)C(=O)C21CC1 [Example 31, (S)-N-(5-(2′-(2,6-difluoro-3,5-dimethoxyphenyl)-3′-oxo-2′,3′-dihydro-1′H-spiro[cyclopropane-1,4′-[2,7]naphthyridine]-6′-yl)-1-((tetrahydrofuran-2-yl)methyl)-1H-pyrazol-4-yl)acrylamide] here?
Answer: Its FGFR1/FGFR4 is >100.

Question: What about the FGFR3/FGFR4 (FGFR3) of the same compound?
Answer: The FGFR3/FGFR4 was >100.

Question: What about the FGFR2/FGFR4 (FGFR2) of the same compound?
Answer: Its FGFR2/FGFR4 is >100.

Question: Which results are given for C=CC(=O)Nc1cn(CCOC)nc1-c1cc2c(cn1)CN(c1c(F)c(OC)cc(OC)c1F)C(=O)C21CC1 [Example 32, N-(3-(2′-(2,6-difluoro-3,5-dimethoxyphenyl)-3′-oxo-2′,3′-dihydro-1′H-spiro[cyclopropane-1,4′-[2,7]naphthyridine]-6′-yl)-1-(2-methoxyethyl)-1H-pyrazol-4-yl)acrylamide]?
Answer: FGFR1/FGFR4 (FGFR1): >100; FGFR3/FGFR4 (FGFR3): >100; FGFR2/FGFR4 (FGFR2): >100

Question: How did the FGFR1/FGFR4 (FGFR1) turn out when C=CC(=O)Nc1cn(CCOC(F)(F)F)nc1-c1cc2c(cn1)CN(c1c(F)c(OC)cc(OC)c1F)C(=O)C21CC1 [Example 33, N-(3-(2′-(2,6-difluoro-3,5-dimethoxyphenyl)-3′-oxo-2′,3′-dihydro-1′H-spiro[cyclopropane-1,4′-[2,7]naphthyridine]-6′-yl)-1-(2-(trifluoromethoxy)ethyl)-1H-pyrazol-4-yl)acrylamide] was run?
Answer: The FGFR1/FGFR4 was >100.

Question: And the FGFR3/FGFR4 (FGFR3)?
Answer: Its FGFR3/FGFR4 is >100.

Question: And the FGFR2/FGFR4 (FGFR2)?
Answer: Its FGFR2/FGFR4 is >100.

Question: What does the source list for C=CC(=O)Nc1cn(CCN2CCOCC2)nc1-c1cc2c(cn1)CN(c1c(F)c(OC)cc(OC)c1F)C(=O)C21CC1 [Example 34, N-(3-(2′-(2,6-difluoro-3,5-dimethoxyphenyl)-3′-oxo-2′,3′-dihydro-1′H-spiro[cyclopropane-1,4′-[2,7]naphthyridine]-6′-yl)-1-(2-morpholinoethyl)-1H-pyrazol-4-yl)acrylamide]?
Answer: FGFR1/FGFR4 (FGFR1): >100; FGFR3/FGFR4 (FGFR3): >100; FGFR2/FGFR4 (FGFR2): >100

Question: What does the source list for C=CC(=O)Nc1cn(CC2CCOCC2)nc1-c1cc2c(cn1)CN(c1c(F)c(OC)cc(OC)c1F)C(=O)C21CC1 [Example 35, N-(3-(2′-(2,6-difluoro-3,5-dimethoxyphenyl)-3′-oxo-2′,3′-dihydro-1′H-spiro[cyclopropane-1,4′-[2,7]naphthyridine]-6′-yl)-1-((tetrahydro-2H-pyran-4-yl)methyl)-1H-pyrazol-4-yl)acrylamide]?
Answer: FGFR1/FGFR4 (FGFR1): >100; FGFR3/FGFR4 (FGFR3): >100; FGFR2/FGFR4 (FGFR2): >100

Question: For C=CC(=O)Nc1cn(CC(=O)N(C)C)nc1-c1cc2c(cn1)CN(c1c(F)c(OC)cc(OC)c1F)C(=O)C21CC1 [Example 36, N-(3-(2′-(2,6-difluoro-3,5-dimethoxyphenyl)-3′-oxo-2′,3′-dihydro-1′H-spiro[cyclopropane-1,4′-[2,7]naphthyridine]-6′-yl)-1-(2-(dimethylamino)-2-oxoethyl)-1H-pyrazol-4-yl)acrylamide], which FGFR1/FGFR4 (FGFR1) is on record?
Answer: Its FGFR1/FGFR4 is >100.

Question: What about the FGFR3/FGFR4 (FGFR3) of the same compound?
Answer: The FGFR3/FGFR4 was >100.

Question: And the FGFR2/FGFR4 (FGFR2)?
Answer: The FGFR2/FGFR4 was >100.

Question: Which FGFR1/FGFR4 (FGFR1) does the source give for C=CC(=O)Nc1ccc(C)c(-c2ncc3c(n2)C2(CC2)C(=O)N(c2c(F)c(OC)cc(OC)c2F)C3)c1 [Example 37, N-(3-(6′-(2,6-difluoro-3,5-dimethoxyphenyl)-7′-oxo-6′,7′-dihydro-5′H-spiro[cyclopropane-1,8′-pyrido[4,3-d]pyrimidine]-2′-yl)-4-methylphenyl)acrylamide] here?
Answer: The FGFR1/FGFR4 was >100.

Question: And the FGFR3/FGFR4 (FGFR3)?
Answer: The FGFR3/FGFR4 was >100.

Question: And the FGFR2/FGFR4 (FGFR2)?
Answer: The FGFR2/FGFR4 was >100.
